This is an account of results in PubChem BioAssay (NCI).

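Interpolation was linear, between the two tested concentrations surrounding the appropriate level; five concentrations were tested over 48 hours in 96-well plates. GI50 is the concentration that inhibits growth by half. TGI: concentration producing complete growth inhibition.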

Experiment in all cases: inhibition of tumour cell growth, NCI panel, 48 h
The subject of test [1] is CAKI-1 renal.
The test system of test [2] is LOX IMVI melanoma.
Test [3] deals with UACC-62 melanoma.
The subject of test [4] is SK-MEL-5 melanoma.
Test [5] deals with K-562 leukemia.
Test [6] relates to NCI-H522 lung.
Test [7] has as its system TK-10 renal.
Test [8] has as its system RPMI-8226 leukemia.

As to `COc1ccc(C2CC(c3cccc(Nc4ccncc4)c3)=NN2c2cc(Cl)cc(Cl)c2)cc1` (stereo unspecified), the GI50 in test [1] is 1.62 µM; in test [2], 1.62 µM; in test [3] it was 1.9 µM; in test [4], 1.81 µM; in test [5], 2.41 µM. The TGI in test [1] stood at 3.1 µM; in test [2], 2.97 µM; in test [3], 3.94 µM; in test [4], 3.28 µM; in test [5], 5.57 µM.
Consider `c1ccc2sc(C3(N4CCCC4)CCCCCC3)cc2c1`, for which the TGI in test [1] turned out to be 61.2 µM; in test [2] it was 33.2 µM; in test [6], 33.3 µM; in test [3] it was 31.1 µM; in test [4], 33.9 µM; in test [5], 38.5 µM. The TGI in test [7] was 45.1 µM.
Turning to `CC(=O)c1c2c(cc3c1CC1(Cc4ccccc4C1=O)C3)CCC2` (stereo unspecified), the TGI in test [1] was 66 µM; in test [2] it was 55.7 µM; in test [6], > 100 µM; in test [4], 23 µM; in test [5] it was > 100 µM; in test [7] it was > 100 µM. In test [8], this compound yielded a TGI of 39.1 µM.
As for `O=[N+]([O-])c1ccc(C=C2C(Cl)=C(Cl)C(Cl)=C2Cl)cc1`, the GI50 in test [1] was 1.11 µM; in test [2] it was 2 µM; in test [3], 4.24 µM; in test [4], 21.8 µM; in test [5], 3.68 µM; in test [7], 2.41 µM. The GI50 in test [8] was 1.84 µM. The TGI was 3.4 µM in test [1]; 4.3 µM in test [2]; 24.4 µM in test [3]; > 100 µM in test [4]; > 100 µM in test [5]; 7.58 µM in test [7]. The same compound came in with a TGI in test [8] of 5.16 µM.
Consider `CC(C)(C)C(=O)OCC1CCC[N+]2(C)CCCCC12` (stereo unspecified), for which the TGI in test [1], in test [2], in test [3], in test [4], in test [5] and in test [7] was > 100 µM each time. For the same compound, the TGI in test [8] was > 100 µM.
With `CC(C)C1OC23CCCCC2C(C#N)(C#N)C1(C#N)C(=N)O3` (stereo unspecified), the TGI in test [1] is 22.4 µM; in test [2], 54 µM; in test [3], 58 µM; in test [4] it was 35.7 µM; in test [5] it was > 100 µM; in test [7], 48.4 µM.
With `Clc1c(Cl)c(Cl)c2nn(C3CCCO3)nc2c1Cl` (stereo unspecified), the TGI was > 100 µM in test [1]; > 100 µM in test [6]; > 100 µM in test [3]; > 100 µM in test [4]; 98.3 µM in test [5]; > 100 µM in test [7].
In the case of `CCOC(=O)C1(Cc2ccc3c(c2)CCC3)Cc2cc3c(cc2C1)CCC3`, the TGI in test [1] is > 100 µM; in test [2], 82.4 µM; in test [6], 75.5 µM; in test [3], > 100 µM; in test [5], > 100 µM; in test [7], > 100 µM. In test [8], this compound returned a TGI of 49.2 µM.
In the case of `CN1C(=O)N/C(=C\c2ccc(S(=O)(=O)NN)cc2)C1=O`, the TGI in test [1], in test [2], in test [3], in test [4], in test [5] and in test [7] was > 100 µM in each case. In addition, in test [8], the TGI is > 100 µM.
As to `CC1(CCCO)CCCCCC(C)(CCCO)C1=O` (stereo unspecified), the TGI in test [1], in test [2], in test [6], in test [3], in test [4] and in test [5] was > 100 µM throughout. In addition, the TGI in test [8] is > 100 µM.
On to `COc1ccc(/C=C(/C(=O)c2ccc(Cl)cc2)N2C=CC=CC2=C(C#N)C#N)cc1OC`, for which the TGI in test [1] was found to be 5.69 µM; in test [2], 8.3 µM; in test [6], 0.953 µM; in test [3], 28.2 µM; in test [4], 22.9 µM; in test [7] it was 17.8 µM. In test [8], this compound returned a TGI of 8.59 µM.
On to `N#C/C(C(=O)Nc1ccccc1)=C(/N)N1CCOCC1`, for which the TGI in test [1], in test [2], in test [3], in test [4], in test [5] and in test [8] was > 100 µM each time.
On to `CCc1nc(N)nc(N)c1-c1ccc(Cl)c(Cl)c1`, for which the TGI in test [1], in test [2], in test [6], in test [3], in test [4] and in test [7] was > 100 µM throughout. For the same compound, in test [8], the TGI is > 100 µM.
As for `O=C1OC[C@@H]2Cc3cc4c(cc3[C@H](c3ccc5c(c3)OCO5)[C@@H]12)OCO4`, the TGI in test [1], in test [2], in test [4], in test [5], in test [7] and in test [8] was > 25 µM throughout.
For the compound `CNc1ccc(OC)cc1S(=O)(=O)c1ccccc1[N+](=O)[O-]`, the TGI in test [2], in test [6], in test [3], in test [4], in test [5] and in test [7] was > 100 µM throughout. Moreover, in test [8], the TGI was > 100 µM.
`C=CC(Br)(CBr)CCC(Cl)C(C)C` (stereo unspecified): the TGI was determined as 7.52 µM in test [1]; 2.46 µM in test [2]; 2.8 µM in test [6]; 2.98 µM in test [3]; 3.91 µM in test [4]; 5.4 µM in test [5]. In addition, the TGI in test [7] turned out to be 3.5 µM.
As for `COc1cc(Nc2cnc3cc(F)c(F)cc3n2)cc(OC)c1OC`, the TGI in test [1], in test [2], in test [6], in test [3], in test [4] and in test [7] was > 100 µM throughout.
As to `NC(=O)C(N)Cc1ccc(O)cn1` (stereo unspecified), the TGI in test [1], in test [2], in test [6], in test [4], in test [5] and in test [7] was > 100 µM throughout. In addition, in test [8], the TGI was > 100 µM.
As to `CC(=O)OCCn1cnc2nc(Nc3ccccc3)nc(Cl)c21`, the TGI in test [2], in test [6], in test [3], in test [4], in test [5] and in test [7] was > 100 µM in each case. Moreover, the TGI in test [8] was > 100 µM.
Take `C=C1C[C@@H]2O[C@H]3[C@H]4[C@@H](C[C@@H](C)[C@@H](OC(C)=O)[C@H]42)[C@@H](C)CO[C@@]3(C)[C@H](OC(C)=O)C[C@H]1O`: the TGI in test [1] is > 100 µM; in test [2], 38.7 µM; in test [6], > 100 µM; in test [3], > 100 µM; in test [4] it was > 100 µM; in test [5], 63.7 µM. Besides, the TGI in test [7] was > 100 µM.
For `COCCOCc1nc(C#N)c(N)o1`, the TGI in test [1], in test [2], in test [3], in test [4], in test [5] and in test [7] was > 100 µM in each case. In addition, the TGI in test [8] was > 100 µM.
Take `O/N=C1/COC(C(F)(F)F)(C(F)(F)F)C1`: the TGI in test [1], in test [2], in test [6], in test [3], in test [4] and in test [7] was > 100 µM each time. The TGI in test [8] was > 100 µM.
For the compound `COc1nc(C(=O)NNC(=O)c2nc(OC)c3ccccc3c2-c2ccccc2)c(-c2ccccc2)c2ccccc12`, the TGI in test [1], in test [6], in test [3], in test [4], in test [5] and in test [7] was > 100 µM in each case. Moreover, in test [8], the TGI is > 100 µM.
Consider `O=C(O)c1n[nH]nc1Cl`, for which the TGI in test [2], in test [6], in test [3], in test [4], in test [5] and in test [7] was > 100 µM in each case. Further, the TGI in test [8] was > 100 µM.
For `CCOC(=O)C1=CC(C)(C(=O)OCC)Nc2c(nc(OC)n(C)c2=O)N1` (stereo unspecified), the TGI in test [1], in test [2], in test [6], in test [4], in test [5] and in test [7] was > 10 µM throughout. The TGI in test [8] is > 10 µM.
For `CN(C)Cc1cc(C(=O)/C=C/c2ccc(Cl)cc2)cc(CN(C)C)c1O`, the TGI in test [1] was found to be 20 µM; in test [2] it was 15.3 µM; in test [6], 10.8 µM; in test [4], 27.6 µM; in test [5], 21.4 µM; in test [7], 39 µM. In test [8], this compound gave a TGI of 42.6 µM.
Turning to `NNC(N)Nc1ccccc1` (stereo unspecified), the TGI in test [1], in test [6], in test [3], in test [4], in test [5] and in test [7] was > 100 µM each time.
`COc1ccc(C(=O)Sc2c(-c3ccccc3)c(=O)n(-c3ccccc3)c(=S)n2-c2ccccc2)cc1`: the TGI in test [1], in test [2], in test [6], in test [3], in test [5] and in test [7] was > 100 µM each time.
`O=[N+]([O-])c1ccccc1S(=O)(=O)c1cc(Cl)cc2c1NCCC2`: the TGI in test [1] is > 100 µM; in test [2], > 100 µM; in test [3] it was > 100 µM; in test [4], 86.1 µM; in test [5], > 100 µM; in test [7], > 100 µM. In addition, the TGI in test [8] is > 100 µM.
In the case of `COC(=O)Cc1cc(O)c(C/C=C(\C)CC/C=C(\C)C(O)C(=O)C=C(C)C)cc1O` (stereo unspecified), the TGI was 39.8 µM in test [6]; 44.4 µM in test [3]; 40.4 µM in test [4]; 39.1 µM in test [5]; 69.6 µM in test [8].
Consider `O=S(=O)(c1ccccc1)n1c2cc3cccnc3nc2c2cccnc21`, for which the TGI in test [1] was > 100 µM; in test [2], > 100 µM; in test [6], > 100 µM; in test [4], > 100 µM; in test [5], 55.3 µM; in test [7], > 100 µM. In test [8], this compound had a TGI of 56.6 µM.
Consider `COc1ccc(C2CC(=O)CC(c3ccc(OC)cc3)C23C(=O)NC(=O)NC3=O)cc1` (stereo unspecified), for which the TGI in test [1] is 65.3 µM; in test [2] it was > 100 µM; in test [6], 60.2 µM; in test [3], > 100 µM; in test [4], 68 µM; in test [5], > 100 µM. Moreover, the TGI in test [7] was > 100 µM.
As for `c1ccc(N=C2SC(=NC3CCCCC3)N(C3CCCCC3)C2=Nc2ccccc2)cc1`, the TGI in test [1], in test [6], in test [3], in test [4], in test [5] and in test [8] was > 100 µM throughout.
As to `S=C(NCc1ccccc1)c1nc[nH]c1C(=S)NCc1ccccc1`, the TGI was 18.7 µM in test [1]; 17.1 µM in test [2]; 21.3 µM in test [6]; 13.4 µM in test [3]; 29.7 µM in test [5]; 23.9 µM in test [7]. Moreover, in test [8], the TGI stood at 35.6 µM.
In the case of `COc1ccc(N=C2SC(=N/N=c3\sc4ccccc4n3C)SC2=Nc2ccc(OC)cc2)cc1`, the TGI in test [1], in test [6], in test [3], in test [4], in test [5] and in test [7] was > 100 µM throughout. The TGI in test [8] was > 100 µM.
As for `Cc1cc2nc3c(C#N)c(-c4ccccc4)cc(Nc4ccc(Cl)cc4)n3c2cc1C`, the TGI in test [1], in test [2], in test [6], in test [4], in test [7] and in test [8] was > 100 µM in each case.
